Laboratory results: patent publication US8916702B2 (priority 2012, dated 2014)

tested on: HCV pseudoparticles (genotype 1a HCV E1 and E2 envelope, H77C isolate); assay: microbe, parasite or virus in culture; format: cell-based; settings: Hepatitis C virus, Huh-7, 48 h, HCV pseudoparticle infection of Huh7 cells, luciferase 2 days after infection; average of duplicates

| Structure (SMILES) | EC50 |
| --- | --- |
| CC(C)(CNC(=O)C(=O)Nc1ccccc1)CNC(=O)c1ccc(Nc2nc(NC3(c4ccc(Cl)cc4)CC3)nc(OCC(F)(F)F)n2)cc1 [Compound 1035, N1-(3-(4-(4-(1-(4-chlorophenyl)cyclopropylamino)-6-(2,2,2-trifluoroethoxy)-1,3,5-triazin-2-ylamino)benzamido)-2,2-dimethylpropyl)-N2-phenyloxalamide] | 0.03 nM |
| Cn1cnnc1-c1ccc(NC(=O)C(=O)NCC(C)(C)CNC(=O)c2ccc(Nc3nc(NC4(c5ccc(Cl)cc5)CC4)nc(OCC(F)(F)F)n3)cc2)cc1 [Compound 1601] | 0.03 nM |

same assay, conditions: Hepatitis C virus, Huh-7, 48 h, HCV pseudoparticles (genotype 1a, H77C) in Huh7 cells; average of duplicate; luciferase 2 days after infection

| Structure (SMILES) | EC50 |
| --- | --- |
| Cc1ccc(NC(=O)C(=O)NCC(C)(C)CNC(=O)c2ccc(Nc3nc(NC4(c5ccc(Cl)cc5)CC4)nc(OCC(F)(F)F)n3)cc2F)cc1 [Compound 3554] | 0.029 nM |

same assay, conditions: Hepatitis C virus, Huh-7, 48 h, HCV pseudoparticles, Huh7 cells, luciferase 2 days after infection; average of duplicates

| Structure (SMILES) | EC50 |
| --- | --- |
| CC(C)(CNC(=O)C(=O)Nc1nc2ccc(Cl)cc2s1)CNC(=O)c1ccc(Nc2nc(NC3(c4ccc(Cl)cc4)CC3)nc(OCC(F)(F)F)n2)cc1 [Compound 3807] | 0.28 nM |

same assay, conditions: Hepatitis C virus, Huh-7, 48 h, read-out: Activity (EC50 class), HCV pseudoparticle infection of Huh7 cells, luciferase 2 days after infection; EC50 expressed as class A/B

| Structure (SMILES) | EC50 |
| --- | --- |
| COC(=O)[C@H](CCNC(=O)C(=O)NC1CCNC(=O)C1)NC(=O)c1ccc(Nc2nc(NC3(c4ccc(Cl)cc4)CC3)nc(OCC(F)(F)F)n2)cc1 (some centres unmarked) [Compound 1072] | 0.01 to 10 nM |
| COC(=O)[C@H](CCNC(=O)C(=O)NCCc1ccncc1)NC(=O)c1ccc(Nc2nc(NC3(c4ccc(Cl)cc4)CC3)nc(OCC(F)(F)F)n2)cc1 [Compound 1311] | 0.01 to 10 nM |
| CN(C(=O)C(=O)NC[C@H](NC(=O)c1ccc(Nc2nc(NC3(c4ccc(Cl)cc4)CC3)nc(OCC(F)(F)F)n2)cc1)C(=O)O)c1ccccc1 [Compound 1365] | 0.01 to 10 nM |
| COC1CCCCC1CNC(=O)C(=O)NCC[C@H](NC(=O)c1ccc(Nc2nc(NC3(c4ccc(Cl)cc4)CC3)nc(OCC(F)(F)F)n2)cc1)C(=O)O (some centres unmarked) [Compound 1182] | 0.01 to 10 nM |
| COC(=O)[C@H](CNC(=O)C(=O)Nc1ccnn1C)NC(=O)c1ccc(Nc2nc(NC3(c4ccc(Cl)cc4)CC3)nc(OCC(F)(F)F)n2)cc1 [Compound 1260] | 0.01 to 10 nM |
| CC(C)c1ccc(NC(=O)C(=O)NCC(C)(C)CNC(=O)c2ccc(Nc3nc(NC4(c5ccc(Cl)cc5)CC4)nc(OCC(F)(F)F)n3)cc2)cc1 [Compound 1589] | 0.01 to 10 nM |
| CC(C)(CNC(=O)C(=O)Nc1ccc(CC(=O)O)cc1)CNC(=O)c1ccc(Nc2nc(NC3(c4ccc(Cl)cc4)CC3)nc(OCC(F)(F)F)n2)cc1 [Compound 1481] | 0.01 to 10 nM |
| CC(C)(CNC(=O)C(=O)NC1CCCCCC1)CNC(=O)c1ccc(Nc2nc(NC3(c4ccc(Cl)cc4)CC3)nc(OCC(F)(F)F)n2)cc1 [Compound 1033, N1-(3-(4-(4-(1-(4-chlorophenyl)cyclopropylamino)-6-(2,2,2-trifluoroethoxy)-1,3,5-triazin-2-ylamino)benzamido)-2,2-dimethylpropyl)-N2-cycloheptyloxalamide] | 0.01 to 10 nM |
| COC(=O)C(CNC(=O)C(=O)NC1CCC(O)CC1)NC(=O)c1ccc(Nc2nc(NC3(c4ccc(Cl)cc4)CC3)nc(OCC(F)(F)F)n2)cc1 (centres unmarked) [Compound 1048] | 0.01 to 10 nM |
| COc1cccc(C2CC2CNC(=O)C(=O)NCC[C@H](NC(=O)c2ccc(Nc3nc(NC4(c5ccc(Cl)cc5)CC4)nc(OCC(F)(F)F)n3)cc2)C(=O)O)c1 (some centres unmarked) [Compound 1423] | 0.01 to 10 nM |
| COCC1(CNC(=O)C(=O)NCC[C@H](NC(=O)c2ccc(Nc3nc(NC4(c5ccc(Cl)cc5)CC4)nc(OCC(F)(F)F)n3)cc2)C(=O)OC)CC1 [Compound 1374] | 0.01 to 10 nM |
| Cn1cnnc1-c1ccc(NC(=O)C(=O)NCC(C)(C)CNC(=O)c2ccc(Nc3nc(NC4(c5ccc(Cl)cc5)CC4)nc(OCC(F)(F)F)n3)cc2)cc1 [Compound 1601] | 0.01 to 10 nM |
| COC(=O)[C@H](CCNC(=O)C(=O)NC(CCO)C1CC1)NC(=O)c1ccc(Nc2nc(NC3(c4ccc(Cl)cc4)CC3)nc(OCC(F)(F)F)n2)cc1 (some centres unmarked) [Compound 1391] | 0.01 to 10 nM |
| COC(=O)[C@@H](CCNC(=O)C(=O)NCC1CC1c1cccc(OC)c1)NC(=O)c1ccc(Nc2nc(NC3(c4ccc(Cl)cc4)CC3)nc(OCC(F)(F)F)n2)cc1 (some centres unmarked) [Compound 1416] | 0.01 to 10 nM |
| O=C(NCC[C@H](NC(=O)c1ccc(Nc2nc(NC3(c4ccc(Cl)cc4)CC3)nc(OCC(F)(F)F)n2)cc1)C(=O)O)C(=O)NCC1CCCCCC1 [Compound 1207] | 0.01 to 10 nM |
| COC(=O)[C@H](CNC(=O)C(=O)NCCc1ccc(F)cc1)NC(=O)c1ccc(Nc2nc(NC3(c4ccc(Cl)cc4)CC3)nc(OCC(F)(F)F)n2)cc1 [Compound 1292] | 0.01 to 10 nM |
| COC(=O)[C@H](CNC(=O)C(=O)NCCc1cnn(C)c1)NC(=O)c1ccc(Nc2nc(NC3(c4ccc(Cl)cc4)CC3)nc(OCC(F)(F)F)n2)cc1 [Compound 1302] | 0.01 to 10 nM |
| COC(=O)[C@H](CCNC(=O)C(=O)NCC1CCCOC1)NC(=O)c1ccc(Nc2nc(NC3(c4ccc(Cl)cc4)CC3)nc(OCC(F)(F)F)n2)cc1 (some centres unmarked) [Compound 1198] | 0.01 to 10 nM |
| CNC(=O)C(=O)NCC[C@H](NC(=O)c1ccc(Nc2nc(NC3(c4ccc(Cl)cc4)CC3)nc(OCC(F)(F)F)n2)cc1)C(=O)O [Compound 1014, (S)-2-(4-(4-(1-(4-chlorophenyl)cyclopropylamino)-6-(2,2,2-trifluoroethoxy)-1,3,5-triazin-2-ylamino)benzamido)-4-(2-(methylamino)-2-oxoacetamido)butanoic acid] | 0.01 to 10 nM |
| NC(=O)C(=O)NCCC[C@H](NC(=O)c1ccc(Nc2nc(NC3(c4ccc(Cl)cc4)CC3)nc(OCC(F)(F)F)n2)cc1)C(=O)O [Compound 1016, (S)-5-(2-amino-2-oxoacetamido)-2-(4-(4-(1-(4-chlorophenyl)cyclopropylamino)-6-(2,2,2-trifluoroethoxy)-1,3,5-triazin-2-ylamino)benzamido)pentanoic acid] | 0.01 to 10 nM |

same assay, conditions: Hepatitis C virus, Huh-7, 48 h, read-out: Activity (EC50 class), HCV pseudoparticles, Huh7 cells, luciferase 2 days after infection; average of duplicates

| Structure (SMILES) | EC50 |
| --- | --- |
| Cc1ccc2nc(NC(=O)C(=O)NCC(C)(C)CNC(=O)c3ccc(Nc4nc(NC5(c6ccc(Cl)cc6)CC5)nc(OCC(F)(F)F)n4)cc3)sc2c1 [Compound 3826] | 0.01 to 10 nM |
| Cc1ccc(NC(=O)C(=O)NCC(C)(C)CNC(=O)c2ccc(Nc3nc(NC4(c5ccc(Cl)cc5)CC4)nc(OCc4ccc(C(F)(F)F)cc4)n3)cc2)cc1 [Compound 3851] | 0.01 to 10 nM |
| CN(C)CCOc1ccc(NC(=O)C(=O)NC[C@H](NC(=O)c2ccc(Nc3nc(NC4(c5ccc(Cl)cc5)CC4)nc(OCC(F)(F)F)n3)cc2)C(=O)Cl)cn1 [Compound 3790] | 0.01 to 10 nM |
| CC(C)(CNC(=O)C(=O)Nc1nc2ccc(Cl)cc2s1)CNC(=O)c1ccc(Nc2nc(NC3(c4ccc(Cl)cc4)CC3)nc(OCC(F)(F)F)n2)cc1 [Compound 3807] | 0.01 to 10 nM |
| COC(=O)[C@H](CNC(=O)C(=O)Nc1ccc(Oc2ccccc2)nc1)NC(=O)c1ccc(Nc2nc(NC3(c4ccc(Cl)cc4)CC3)nc(OCC(F)(F)F)n2)cc1 [Compound 3715] | 0.01 to 10 nM |
| CC(C)(CNC(=O)C(=O)Nc1nc2c(O)cccc2s1)CNC(=O)c1ccc(Nc2nc(NC3(c4ccc(Cl)cc4)CC3)nc(OCC(F)(F)F)n2)cc1 [Compound 3819] | 0.01 to 10 nM |
| Cc1cccc(NC(=O)C(=O)NC[C@H](NC(=O)c2ccc(Nc3nc(NC4(c5ccc(Cl)cc5)CC4)nc(OCC(F)(F)F)n3)cc2)C(=O)Cl)c1 [Compound 3743] | 0.01 to 10 nM |
| CC(C)(CNC(=O)C(=O)Nc1ccc(C#N)cc1)CNC(=O)c1ccc(Nc2nc(NC3(c4ccc(Cl)cc4)CC3)nc(OCc3ccccc3F)n2)cc1 [Compound 3853] | 0.01 to 10 nM |

same assay, conditions: Hepatitis C virus, Huh-7, read-out: Activity (EC50 class), HCV pseudoparticles (genotype 1a, H77C) in Huh7 cells; EC50 expressed as class A/B

| Structure (SMILES) | EC50 |
| --- | --- |
| O=C(NCc1ccc(F)cc1)C(=O)NCC(O)CNC(=O)c1ccc(Nc2nc(NC3(c4ccc(Cl)cc4)CC3)nc(OCC(F)(F)F)n2)cc1 (centres unmarked) [Compound 3368] | 0.01 to 10 nM |
| O=C(NC1CCCCC1)C(=O)N(CCO)CCCNC(=O)c1ccc(Nc2nc(NC3(c4ccc(Cl)cc4)CC3)nc(OCC(F)(F)F)n2)cc1 [Compound 3510] | 0.01 to 10 nM |
| CC(C)(CNC(=O)c1ccc(Nc2nc(NC3(c4ccc(Cl)cc4)CC3)nc(OCC(F)(F)F)n2)cc1)NC(=O)C(N)=O [Compound 3420] | 0.01 to 10 nM |
| CC(C)(CNC(=O)C(=O)Nc1ccc2cc[nH]c2c1)CNC(=O)c1ccc(Nc2nc(NC3(c4ccc(Cl)cc4)CC3)nc(OCC(F)(F)F)n2)cc1 [Compound 3337] | 0.01 to 10 nM |
| Cc1ccc(NC(=O)C(=O)NCC(C)(C)CNC(=O)c2ccc(Nc3nc(NC4(c5ccc(Cl)cc5)CC4)nc(OCC(F)(F)F)n3)cc2F)cc1 [Compound 3554] | 0.01 to 10 nM |
| Cc1cc(NC(=O)C(=O)NCCCNC(=O)c2ccc(Nc3nc(NC4(c5ccc(Cl)cc5)CC4)nc(OCC(F)(F)F)n3)cc2)no1 [Compound 3343] | 0.01 to 10 nM |
| C=Cc1ccccc1NC(=O)C(=O)NCC(C)(C)CNC(=O)c1ccc(Nc2nc(NC3(c4ccc(Cl)cc4)CC3)nc(OCC(F)(F)F)n2)cc1 [Compound 3362] | 0.01 to 10 nM |
| CC(C)(CNC(=O)C(=O)Nc1ccccc1-c1cc2ccccc2[nH]1)CNC(=O)c1ccc(Nc2nc(NC3(c4ccc(Cl)cc4)CC3)nc(OCC(F)(F)F)n2)cc1 [Compound 3052] | 0.01 to 10 nM |
| O=C(NC/C(=N/C(=O)c1ccc(Nc2nc(NC3(c4ccc(Cl)cc4)CC3)nc(OCC(F)(F)F)n2)cc1)C(=O)O)C(=O)Nc1ccc(C2CCCCC2)cc1 [Compound 3147] | 0.01 to 10 nM |
| COc1cc(OC)nc(-c2ccc(NC(=O)C(=O)NC[C@H](NC(=O)c3ccc(Nc4nc(NC5(c6ccc(Cl)cc6)CC5)nc(OCC(F)(F)F)n4)cc3)C(=O)O)cc2)n1 [Compound 3270] | 0.01 to 10 nM |
| Cc1cc(NC(=O)C(=O)N(CCO)CCCNC(=O)c2ccc(Nc3nc(NC4(c5ccc(Cl)cc5)CC4)nc(OCC(F)(F)F)n3)cc2)no1 [Compound 3500] | 0.01 to 10 nM |
| O=C(N[C@H](CCNC(=O)c1ccc(Nc2nc(NC3(c4ccc(Cl)cc4)CC3)nc(OCC(F)(F)F)n2)cc1)C(=O)O)C(=O)N1CCCCC1 [Compound 3504] | 0.01 to 10 nM |
| CC(C)(CNC(=O)C(=O)NCc1cccc(C(=N)N)c1)CNC(=O)c1ccc(Nc2nc(NC3(c4ccc(Cl)cc4)CC3)nc(OCC(F)(F)F)n2)cc1 [Compound 3039] | 0.01 to 10 nM |
| CC(C)(CNC(=O)C(=O)Nc1ccc(F)c(F)c1F)CNC(=O)c1ccc(Nc2nc(NC3(c4ccc(Cl)cc4)CC3)nc(OCC(F)(F)F)n2)cc1 [Compound 3262] | 0.01 to 10 nM |
| COC(=O)[C@H](CNC(=O)C(=O)Nc1ccc(N(C)c2nc(C)cc(C)n2)cc1)NC(=O)c1ccc(Nc2nc(NC3(c4ccc(Cl)cc4)CC3)nc(OCC(F)(F)F)n2)cc1 [Compound 3104] | 0.01 to 10 nM |
